Reference: publication PMC7377239, “Cardiovascular Effects of Polychlorinated Biphenyls and Their Major Metabolites” (Environmental Health Perspectives, 2020)
Like-named read-outs stand apart in the source and are kept apart here.

Columns and labels:
[1] = system: iCell endothelial cells (human iPSC-derived ECs); test: High-content imaging cytotoxicity in iCell endothelial cells, 24 h; assay type: cell-based; settings: for minimal effective concentration / viability at 0.01 µM / activity at 0.01 µM / viability at 0.1 µM / activity at 0.1 µM / viability at 1 µM / activity at 1 µM / viability at 10 µM / activity at 10 µM / viability at 100 µM / activity at 100 µM: Homo sapiens, Endothelial cell; for endo.cyto.24hr / endo.mito.24hr / endo.mitoint.24hr / endo.nma.24hr / endo.tc.24hrs: 0.00 µM = 100.00
Summary of the method: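 Readouts were vehicle-normalised and fitted to a four-parameter logistic model. POD was set at one SD beyond 0.5% DMSO control means, and 100 µM was assigned when no response was seen. Cells were monolayers of iCell endothelial cells imaged after 24 h compound exposure using nuclear, mitochondrial and calcein dyes.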

[2] = system: iPSC-CMs, iPSC-ECs and HUVECs phenotypes; test: ToxPi 2.0 integration of POD values and physicochemical descriptors; set-up: species or system human; settings: ToxPi-scaled (0-1) score; for huvec.cyto.24hr / huvec.mito.24hr / huvec.mitoint.24hr / huvec.nma.24hr / huvec.tc.24hr / huvec.mtl.18hr / huvec.tlps.18hr / huvec.tta.18hr / huvec.ttl.18hr: HUVECs; for huvec.mtl.18hr / huvec.tlps.18hr / huvec.tta.18hr / huvec.ttl.18hr / endo.mtl.18hr / endo.tlps.18hr / endo.tta.18hr / endo.ttl.18hr: tube formation; for cm.amp.avg.90min / cm.amp.cv.90min / cm.bpm.90min / cm.cam.90min / cm.decay.rise.90min / cm.mii.90min / cm.mito.90min / cm.spacing.cv.90min / cm.tc.90min / cm.amp.avg.24hrs / cm.amp.cv.24hrs / cm.bpm.24hrs / cm.cam.24hrs / cm.decay.rise.24hrs / cm.mii.24hrs / cm.mito.24hrs / cm.spacing.cv.24hrs / cm.tc.24hrs: iPSC cardiomyocytes; for endo.cyto.24hr / endo.mito.24hr / endo.mitoint.24hr / endo.nma.24hr / endo.tc.24hr / endo.mtl.18hr / endo.tlps.18hr / endo.tta.18hr / endo.ttl.18hr: iPSC endothelial cells
Summary of the method: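 Phenotypic readouts in iPSC-cardiomyocytes, iPSC-endothelial cells and HUVECs were normalised to 0.5% DMSO vehicle and fitted to a four-parameter logistic model. POD set at one SD cutoff of vehicle means, with 100 μM assigned when no response. PODs and physicochemical descriptors combined in ToxPi 2.0 scores.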

## Clc1ccc(Cl)c(-c2c(Cl)ccc(Cl)c2Cl)c1Cl [(+)-PCB 136, 2,2′,3,3′,6,6′-hexachlorobiphenyl]
[1]; endothelial cells (endo), nma, 24 hr, read-out: POD endo.nma.24hr
  minimal effective concentration: 100 µM
[1]; iPSC-EC, 0.01 µM, 0.00 µM = 100.00, read-out: endo.cyto.24hr
  viability at 0.01 µM: 103%
[1]; iPSC-EC, 0.01 µM, 0.00 µM = 100.00, read-out: endo.mito.24hr
  activity at 0.01 µM: 103%
[1]; iPSC-EC, 0.01 µM, 0.00 µM = 100.00, read-out: endo.mitoint.24hr
  activity at 0.01 µM: 96.4%
[1]; iPSC-EC, 0.01 µM, 0.00 µM = 100.00, read-out: endo.nma.24hr
  activity at 0.01 µM: 102%
[1]; iPSC-EC, 0.01 µM, 0.00 µM = 100.00, read-out: endo.tc.24hrs
  viability at 0.01 µM: 103%
[1]; iPSC-EC, 0.10 µM, 0.00 µM = 100.00, read-out: endo.cyto.24hr
  viability at 0.1 µM: 103%
[1]; iPSC-EC, 0.10 µM, 0.00 µM = 100.00, read-out: endo.mito.24hr
  activity at 0.1 µM: 104%
[1]; iPSC-EC, 0.10 µM, 0.00 µM = 100.00, read-out: endo.mitoint.24hr
  activity at 0.1 µM: 95.5%
[1]; iPSC-EC, 0.10 µM, 0.00 µM = 100.00, read-out: endo.nma.24hr
  activity at 0.1 µM: 98.7%
[1]; iPSC-EC, 0.10 µM, 0.00 µM = 100.00, read-out: endo.tc.24hrs
  viability at 0.1 µM: 103%
[1]; iPSC-EC, 1.00 µM, 0.00 µM = 100.00, read-out: endo.cyto.24hr
  viability at 1 µM: 103%
[1]; iPSC-EC, 1.00 µM, 0.00 µM = 100.00, read-out: endo.mito.24hr
  activity at 1 µM: 103%
[1]; iPSC-EC, 1.00 µM, 0.00 µM = 100.00, read-out: endo.mitoint.24hr
  activity at 1 µM: 92.5%
[1]; iPSC-EC, 1.00 µM, 0.00 µM = 100.00, read-out: endo.nma.24hr
  activity at 1 µM: 98.5%
[1]; iPSC-EC, 1.00 µM, 0.00 µM = 100.00, read-out: endo.tc.24hrs
  viability at 1 µM: 103%
[1]; iPSC-EC, 10.00 µM, 0.00 µM = 100.00, read-out: endo.cyto.24hr
  viability at 10 µM: 101%
[1]; iPSC-EC, 10.00 µM, 0.00 µM = 100.00, read-out: endo.mito.24hr
  activity at 10 µM: 102%
[1]; iPSC-EC, 10.00 µM, 0.00 µM = 100.00, read-out: endo.mitoint.24hr
  activity at 10 µM: 92.2%
[1]; iPSC-EC, 10.00 µM, 0.00 µM = 100.00, read-out: endo.nma.24hr
  activity at 10 µM: 99.4%
[1]; iPSC-EC, 10.00 µM, 0.00 µM = 100.00, read-out: endo.tc.24hrs
  viability at 10 µM: 101%
[1]; iPSC-EC, 100.00 µM, 0.00 µM = 100.00, read-out: endo.cyto.24hr
  viability at 100 µM: 46.7%
[1]; iPSC-EC, 100.00 µM, 0.00 µM = 100.00, read-out: endo.mito.24hr
  activity at 100 µM: 41.6%
[1]; iPSC-EC, 100.00 µM, 0.00 µM = 100.00, read-out: endo.mitoint.24hr
  activity at 100 µM: 51.5%
[1]; iPSC-EC, 100.00 µM, 0.00 µM = 100.00, read-out: endo.nma.24hr
  activity at 100 µM: 104%
[1]; iPSC-EC, 100.00 µM, 0.00 µM = 100.00, read-out: endo.tc.24hrs
  viability at 100 µM: 50.8%
[1]; iPSC-EC, 100.00 = highest concentration tested, read-out: endo.nma.24hr POD
  minimal effective concentration: 100 µM
[2]
  huvec.cyto.24hr: 0.7118
  huvec.mito.24hr: 0.6728
  huvec.mitoint.24hr: 1
  huvec.nma.24hr: 0.5111
  huvec.tc.24hr: 0.7118
  huvec.mtl.18hr: 0.4492
  huvec.tlps.18hr: 0
  huvec.tta.18hr: 0
  huvec.ttl.18hr: 0
  cm.amp.avg.90min: 0.6409
  cm.amp.cv.90min: 0.2396
  cm.bpm.90min: 0.7987
  cm.cam.90min: 0.4781
  cm.decay.rise.90min: 0.1898
  cm.mii.90min: 0.5827
  cm.mito.90min: 0.4679
  cm.spacing.cv.90min: 0.07704
  cm.tc.90min: 0.4097
  cm.amp.avg.24hrs: 0.5612
  cm.amp.cv.24hrs: 0.5448
  cm.bpm.24hrs: 0.7213
  cm.cam.24hrs: 0.5816
  cm.decay.rise.24hrs: 0.9212
  cm.mii.24hrs: 0.1793
  cm.mito.24hrs: 0.8542
  cm.spacing.cv.24hrs: 0.7501
  cm.tc.24hrs: 1
  endo.cyto.24hr: 0.1692
  endo.mito.24hr: 0.1692
  endo.mitoint.24hr: 0.294
  endo.nma.24hr: 0
  endo.tc.24hr: 0.1732
  endo.mtl.18hr: 0.04754
  endo.tlps.18hr: 0.448
  endo.tta.18hr: 0.8586
  endo.ttl.18hr: 0.8499

## Clc1ccc(Cl)c(-c2c(Cl)ccc(Cl)c2Cl)c1Cl [(-)-PCB 136, 2,2′,3,3′,6,6′-hexachlorobiphenyl]
[1]; iPSC-EC, 0.01 µM
  endo.cyto.24hr: 97.58
  endo.mito.24hr: 98.40
  endo.mitoint.24hr: 92.73
  endo.nma.24hr: 101.21
  endo.tc.24hrs: 97.58
[1]; iPSC-EC, 0.10 µM
  endo.cyto.24hr: 98.68
  endo.mito.24hr: 99.17
  endo.mitoint.24hr: 90.73
  endo.nma.24hr: 99.07
  endo.tc.24hrs: 98.68
[1]; iPSC-EC, 1.00 µM
  endo.cyto.24hr: 92.98
  endo.mito.24hr: 93.57
  endo.mitoint.24hr: 89.65
  endo.nma.24hr: 102.49
  endo.tc.24hrs: 92.98
[1]; iPSC-EC, 10.00 µM
  endo.cyto.24hr: 96.25
  endo.mito.24hr: 96.58
  endo.mitoint.24hr: 86.88
  endo.nma.24hr: 101.21
  endo.tc.24hrs: 96.25
[1]; iPSC-EC, 100.00 µM
  endo.cyto.24hr: 49.24
  endo.mito.24hr: 43.24
  endo.mitoint.24hr: 53.93
  endo.nma.24hr: 111.21
  endo.tc.24hrs: 54.61
[2]
  huvec.cyto.24hr: 0.6125
  huvec.mito.24hr: 0.5549
  huvec.mitoint.24hr: 0.9537
  huvec.nma.24hr: 0.4969
  huvec.tc.24hr: 0.6125
  huvec.mtl.18hr: 0.3427
  huvec.tlps.18hr: 0.303
  huvec.tta.18hr: 0.01368
  huvec.ttl.18hr: 0
  cm.amp.avg.90min: 0.7629
  cm.amp.cv.90min: 0.2327
  cm.bpm.90min: 0.26
  cm.cam.90min: 0.908
  cm.decay.rise.90min: 0.5565
  cm.mii.90min: 0.3116
  cm.mito.90min: 0.9077
  cm.spacing.cv.90min: 0.07999
  cm.tc.90min: 0.9177
  cm.amp.avg.24hrs: 0.7236
  cm.amp.cv.24hrs: 1
  cm.bpm.24hrs: 0.3802
  cm.cam.24hrs: 0.2824
  cm.decay.rise.24hrs: 0.8976
  cm.mii.24hrs: 0.3373
  cm.mito.24hrs: 0.4521
  cm.spacing.cv.24hrs: 0.2002
  cm.tc.24hrs: 0.472
  endo.cyto.24hr: 0.3713
  endo.mito.24hr: 0.3713
  endo.mitoint.24hr: 0.4668
  endo.nma.24hr: 0
  endo.tc.24hr: 0.3821
  endo.mtl.18hr: 0.07274
  endo.tlps.18hr: 0.09334
  endo.tta.18hr: 0.6122
  endo.ttl.18hr: 0.627
